Measurements as given in patent US20260053812A1, “METHODS OF TREATING HYPERTENSION WITH A COMBINATION OF AN ALDOSTERONE SYNTHASE INHIBITOR AND A DIURETIC” (Mineralys Therapeutics, Inc., priority 2022, published 2026).

How the values were obtained:
[1] = Estimated glomerular filtration rate (eGFR, CKD-EPI equation); format: in vivo, human
[2] = ACTH stimulation testing; format: in vivo, human; settings: majority of Part 2 subjects, 100 mg QD, Baseline and after 8 weeks
Protocol: 11-deoxycorticosterone levels were unaffected. […] Due to supply chain disruption, the ability to perform ACTH stimulation testing was limited during the first part of the trial. However, the majority of subjects in Part 2 dosed with 100 mg QD, the maximum dose tested, had ACTH-stimulation testing performed at Baseline and after 8 weeks of treatment.

SMILES: CC(=O)N[C@H]1CC[C@H](NC(=O)CN2CCN(c3nncc(-c4ccc(C)cc4)n3)CC2)CC1 [Compound A HBr]
- Estimated Glomerular Filtration Rate, mean observed ([1]; Part 1, 25 mg BID, Week 5): 73.25 mL/min/1.73 m^2
- Estimated Glomerular Filtration Rate, mean change from baseline ([1]; Part 1, 25 mg BID, Week 6): −8.02 mL/min/1.73 m^2
- Estimated Glomerular Filtration Rate, mean observed ([1]; Part 1, 25 mg BID, Week 6): 72.64 mL/min/1.73 m^2
- Estimated Glomerular Filtration Rate, mean change from baseline ([1]; Part 1, 25 mg BID, Week 7): −7.85 mL/min/1.73 m^2
- Estimated Glomerular Filtration Rate, mean observed ([1]; Part 1, 25 mg BID, Week 7): 72.22 mL/min/1.73 m^2
- Estimated Glomerular Filtration Rate, mean change from baseline ([1]; Part 1, 25 mg BID, Week 8): −5.55 mL/min/1.73 m^2
- Estimated Glomerular Filtration Rate, mean observed ([1]; Part 1, 25 mg BID, Week 8): 75.11 mL/min/1.73 m^2
- Estimated Glomerular Filtration Rate, mean observed ([1]; Part 1, 50 mg QD, BL): 77.18 mL/min/1.73 m^2
- Estimated Glomerular Filtration Rate, mean change from baseline ([1]; Part 1, 50 mg QD, Week 1): −2.96 mL/min/1.73 m^2
- Estimated Glomerular Filtration Rate, mean observed ([1]; Part 1, 50 mg QD, Week 1): 74.21 mL/min/1.73 m^2
- Estimated Glomerular Filtration Rate, mean change from baseline ([1]; Part 1, 50 mg QD, Week 2): −4.32 mL/min/1.73 m^2
- Estimated Glomerular Filtration Rate, mean observed ([1]; Part 1, 50 mg QD, Week 2): 72.86 mL/min/1.73 m^2
- Estimated Glomerular Filtration Rate, mean change from baseline ([1]; Part 1, 50 mg QD, Week 3): −2.35 mL/min/1.73 m^2
- Estimated Glomerular Filtration Rate, mean observed ([1]; Part 1, 50 mg QD, Week 3): 74.81 mL/min/1.73 m^2
- Estimated Glomerular Filtration Rate, mean change from baseline ([1]; Part 1, 50 mg QD, Week 4): −3.61 mL/min/1.73 m^2
- Estimated Glomerular Filtration Rate, mean observed ([1]; Part 1, 50 mg QD, Week 4): 73.63 mL/min/1.73 m^2
- Estimated Glomerular Filtration Rate, mean change from baseline ([1]; Part 1, 50 mg QD, Week 5): −4.10 mL/min/1.73 m^2
- Estimated Glomerular Filtration Rate, mean observed ([1]; Part 1, 50 mg QD, Week 5): 70.58 mL/min/1.73 m^2
- Estimated Glomerular Filtration Rate, mean change from baseline ([1]; Part 1, 50 mg QD, Week 6): −2.83 mL/min/1.73 m^2
- Estimated Glomerular Filtration Rate, mean observed ([1]; Part 1, 50 mg QD, Week 6): 74.63 mL/min/1.73 m^2
- Estimated Glomerular Filtration Rate, mean change from baseline ([1]; Part 1, 50 mg QD, Week 7): −5.46 mL/min/1.73 m^2
- Estimated Glomerular Filtration Rate, mean observed ([1]; Part 1, 50 mg QD, Week 7): 69.68 mL/min/1.73 m^2
- Estimated Glomerular Filtration Rate, mean change from baseline ([1]; Part 1, 50 mg QD, Week 8): −4.64 mL/min/1.73 m^2
- Estimated Glomerular Filtration Rate, mean observed ([1]; Part 1, 50 mg QD, Week 8): 72.54 mL/min/1.73 m^2
- Estimated Glomerular Filtration Rate, mean observed ([1]; Part 1, 100 mg QD, BL): 77.35 mL/min/1.73 m^2
- Estimated Glomerular Filtration Rate, mean change from baseline ([1]; Part 1, 100 mg QD, Week 1): −6.80 mL/min/1.73 m^2
- Estimated Glomerular Filtration Rate, mean observed ([1]; Part 1, 100 mg QD, Week 1): 70.81 mL/min/1.73 m^2
- Estimated Glomerular Filtration Rate, mean change from baseline ([1]; Part 1, 100 mg QD, Week 2): −10.91 mL/min/1.73 m^2
- Estimated Glomerular Filtration Rate, mean observed ([1]; Part 1, 100 mg QD, Week 2): 65.56 mL/min/1.73 m^2
- Estimated Glomerular Filtration Rate, mean change from baseline ([1]; Part 1, 100 mg QD, Week 3): −9.24 mL/min/1.73 m^2
- Estimated Glomerular Filtration Rate, mean observed ([1]; Part 1, 100 mg QD, Week 3): 67.22 mL/min/1.73 m^2
- Estimated Glomerular Filtration Rate, mean change from baseline ([1]; Part 1, 100 mg QD, Week 4): −9.46 mL/min/1.73 m^2
- Estimated Glomerular Filtration Rate, mean observed ([1]; Part 1, 100 mg QD, Week 4): 67.23 mL/min/1.73 m^2
- Estimated Glomerular Filtration Rate, mean change from baseline ([1]; Part 1, 100 mg QD, Week 5): −10.50 mL/min/1.73 m^2
- Estimated Glomerular Filtration Rate, mean observed ([1]; Part 1, 100 mg QD, Week 5): 66.19 mL/min/1.73 m^2
- Estimated Glomerular Filtration Rate, mean change from baseline ([1]; Part 1, 100 mg QD, Week 6): −9.94 mL/min/1.73 m^2
- Estimated Glomerular Filtration Rate, mean observed ([1]; Part 1, 100 mg QD, Week 6): 66.19 mL/min/1.73 m^2
- Estimated Glomerular Filtration Rate, mean change from baseline ([1]; Part 1, 100 mg QD, Week 7): −9.50 mL/min/1.73 m^2
- Estimated Glomerular Filtration Rate, mean observed ([1]; Part 1, 100 mg QD, Week 7): 66.96 mL/min/1.73 m^2
- Estimated Glomerular Filtration Rate, mean change from baseline ([1]; Part 1, 100 mg QD, Week 8): −7.83 mL/min/1.73 m^2
- Estimated Glomerular Filtration Rate, mean observed ([1]; Part 1, 100 mg QD, Week 8): 68.42 mL/min/1.73 m^2
- Estimated Glomerular Filtration Rate, mean observed ([1]; Part 2, 100 mg QD, BL): 79.90 mL/min/1.73 m^2
- Estimated Glomerular Filtration Rate, mean change from baseline ([1]; Part 2, 100 mg QD, Week 1): −9.65 mL/min/1.73 m^2
- Estimated Glomerular Filtration Rate, mean observed ([1]; Part 2, 100 mg QD, Week 1): 70.73 mL/min/1.73 m^2
- Estimated Glomerular Filtration Rate, mean change from baseline ([1]; Part 2, 100 mg QD, Week 2): −8.05 mL/min/1.73 m^2
- Estimated Glomerular Filtration Rate, mean observed ([1]; Part 2, 100 mg QD, Week 2): 72.07 mL/min/1.73 m^2
- Estimated Glomerular Filtration Rate, mean change from baseline ([1]; Part 2, 100 mg QD, Week 3): −7.33 mL/min/1.73 m^2
- Estimated Glomerular Filtration Rate, mean observed ([1]; Part 2, 100 mg QD, Week 3): 72.69 mL/min/1.73 m^2
- Estimated Glomerular Filtration Rate, mean change from baseline ([1]; Part 2, 100 mg QD, Week 4): −7.20 mL/min/1.73 m^2
- Estimated Glomerular Filtration Rate, mean observed ([1]; Part 2, 100 mg QD, Week 4): 72.92 mL/min/1.73 m^2
- Estimated Glomerular Filtration Rate, mean change from baseline ([1]; Part 2, 100 mg QD, Week 5): −8.69 mL/min/1.73 m^2
- Estimated Glomerular Filtration Rate, mean observed ([1]; Part 2, 100 mg QD, Week 5): 71.23 mL/min/1.73 m^2
- Estimated Glomerular Filtration Rate, mean change from baseline ([1]; Part 2, 100 mg QD, Week 6): −10.87 mL/min/1.73 m^2
- Estimated Glomerular Filtration Rate, mean observed ([1]; Part 2, 100 mg QD, Week 6): 68.04 mL/min/1.73 m^2
- Estimated Glomerular Filtration Rate, mean change from baseline ([1]; Part 2, 100 mg QD, Week 7): −7.34 mL/min/1.73 m^2
- Estimated Glomerular Filtration Rate, mean observed ([1]; Part 2, 100 mg QD, Week 7): 72.82 mL/min/1.73 m^2
- Estimated Glomerular Filtration Rate, mean change from baseline ([1]; Part 2, 100 mg QD, Week 8): −7.95 mL/min/1.73 m^2
- Estimated Glomerular Filtration Rate, mean observed ([1]; Part 2, 100 mg QD, Week 8): 72.43 mL/min/1.73 m^2
- Change in estimated glomerular filtration rate (eGFR) ([1]; across dosing cohorts): dose-dependent and reversible reduction
- ACTH-stimulation results [2]: no individuals with abnormal ACTH-stimulation results
